The test system of one test is C2C12 myotubes. Briefly: Myotube diameter in doxorubicin-induced cachexia cell model (Experimental Example 8). The following applies: doxorubicin 500 nM 48 h with or without oxiracetam 0.01, 0.1, 1, 10 and 30 μM; relative to control. Format: cell-based, mouse. The method, then:
A mouse-derived C2C12 cell line was provided from the American Type Culture Collection (ATCC, CRL-1772; Manassas, VA, USA) and cultured at 37° C. in 5% CO2. In the proliferation phase of the cells before differentiation, high concentration glucose Dulbecco's modified Eagle's medium (DMEM) containing 1% penicillin/streptomycin and 10% fetal bovine serum (FBS) medium were used, and in the differentiation induction, the FBS medium was replaced with a 2% horse serum (HS)-containing medium. The C2C12 myoblasts were seeded into a 96 well culture plate and a 6 well culture plate at 2×10^5/well and 5×10^3/well, respectively, and cultured at 37° C. in a CO2 incubator. […]
Two days after anticancer agent and oxiracetam treatment, the anticancer agent-treated group (Doxorubicin), the oxiracetam-treated groups (Oxiracetam 0.01 μM, 0.1 μM, 1 μM, 10 μM and 30 μM), and the control (control) were photographed using an optical microscope at a room temperature, and the diameter (Diameter, %) of a myotube in each group was measured and compared.
(§1) Statistical processing was performed using GraphPad Prism (GraphPad Software Inc., San Diego, CA, USA). The results of each repeated experiment were expressed as mean±standard error of mean, and analyzed using the analysis of variance (Tukey's test), and statistical significance was acknowledged when the P-value was 0.05 or less.

Test [1] deals with animal model in which muscular atrophy is induced by dexamethasone. Briefly: Comparison with dementia drugs in dexamethasone muscular atrophy model (Experimental Example 5). Format: in vivo, ICR mice.
Source text: For an experimental group in the present invention, oxiracetam having a structure of Formula 1 was purchased from Tokyo Chemical Industry (Japan; Product No. 00398, CAS RN:62613-82-5, purity: 96%) and used. Mirtazapine and olanzapine were purchased from Tokyo Chemical Industry (Japan, Product Nos. M2151, 00393, purity: 96%) and used.
As experimental animals, 7-week-old male ICR mice were purchased and used. Until the day of the experiment, general feed (EEGJ30060: Cargill Agri Purina, Seongnam, Korea) and water were sufficiently supplied to the experimental animals, and the animals were acclimated for 1 week under an environment of a temperature of 23±2° C., a humidity of 55±10%, and a light-dark cycle of 12 hours-12 hours and used in the experiment.
After the acclimation period for the experimental animals, to create a muscular atrophy model, the mice were randomly divided into groups of 7 animals, such as a control (vehicle, n=7), a dexamethasone-treated group (n=7), and a drug-administered group (n=7). The groups except for the control were intraperitoneally injected dexamethasone at a dose of 10 mg/kg from day 7 to day 21 for 14 days. In the case of the drug-administered group, 7 days before the intraperitoneal administration of dexamethasone, the drug was orally administered using a Zonde needle at a dose of 30 or 10 mg/kg/day once a day for 21 days. During the same period, the control was administered no drug, and 100 μL of normal saline was orally administered at a time. To the dexamethasone-treated group (dexamethasone excipient, CMC), instead of the drug, 100 μL of a 0.5% carboxymethylcellulose (CMC) solution was administered. This is to set the effect on the excipient as a blank.
To measure grip strength, a grip strength test was performed. The maximum force presented when the forelimbs of an animal model of each group could no longer hold the rod by pulling the tail horizontally while holding the tail of the animal model and holding the rod of a device with both front paws was considered to be grip strength (N). Grip strength adaptation training was performed at least three times before drug administration. After measurement before drug administration (day 0) and on day 20 after drug administration began, grip strength variation (%) after drug administration began (day 20) with respect to that before drug administration (day 0) was calculated.
The lean body mass of the gastrocnemius muscle (GS) and the lean body mass of the tibialis anterior (TA) for each group were measured every 7 days. Specifically, animal models of each group were anesthetized using 3% isoflurane, fixed to a photographing bed and then photographed. During photographing, the respiratory rates and body temperatures of the animal models were measured with an animal monitoring system (SA Instruments, USA).
The whole body of the animal model was photographed through dual energy X-ray absorptiometry (DEXA) using iNSiGHT VET DXA (Osteosys, KR), and the lean body mass of each of the gastrocnemius muscle (GS) and the tibialis anterior (TA) was measured and calculated from the two-dimensional images of the gastrocnemius muscle (GS) and the tibialis anterior (TA) by a program using the region of interest (ROI).
as §1

[2] abbreviates: oxiracetam 30, mirtazapine 10, olanzapine 10 mg/kg/day oral 21 days + dexamethasone, DEXA every 7 days.

SMILES strings stand for the structures.

Turning to `NC(=O)CN1CC(O)CC1=O` (racemic) [oxiracetam, (RS)-2-(4-hydroxy-2-oxopyrrolidin-1-yl)acetamide], the diameter of myotube result with C2C12 myotubes was “significantly recovered and greatly increased to the control (normal group) level”. Besides, the “change in grip strength” value in test [1] (oxiracetam 30, mirtazapine 10, olanzapine 10 mg/kg/day oral 21 days + dexamethasone 10 mg/kg i.p. day 7-21) is recorded as “significantly recovers”. Besides, in test [1] (setting [2]), the “lean body mass of the gastrocnemius muscle (GS)” value is given as “significantly recovers” and the “lean body mass of the tibialis anterior (TA)” value is on record as “significantly recovers”.
